Assay results reported in PMC6020762, “An Integrative Volatile Terpenoid Profiling and Transcriptomics Analysis for Gene Mining and Functional Characterization of AvBPPS and AvPS Involved in the Monoterpenoid Biosynthesis in Amomum villosum” (Frontiers in Plant Science, 2018).

Columns and labels:
[1] = target: T1, AvBPPS (AvTPS3) (Wurfbainia villosa, UniProt A0A2Z4K4Q8); assay: GC-MS product analysis; type: biochemical; conditions: 25 mM HEPES pH 7.0, 5 mM MgCl2, 5 mM DTT, 30 °C, 2 h
T1 construct: gene TPS3; predicted 25-residue N-terminal transit peptide removed (full ORF 596 aa); E. coli Rosetta (DE3); Ni column
T1 sequence (A0A2Z4K4Q8 26-596): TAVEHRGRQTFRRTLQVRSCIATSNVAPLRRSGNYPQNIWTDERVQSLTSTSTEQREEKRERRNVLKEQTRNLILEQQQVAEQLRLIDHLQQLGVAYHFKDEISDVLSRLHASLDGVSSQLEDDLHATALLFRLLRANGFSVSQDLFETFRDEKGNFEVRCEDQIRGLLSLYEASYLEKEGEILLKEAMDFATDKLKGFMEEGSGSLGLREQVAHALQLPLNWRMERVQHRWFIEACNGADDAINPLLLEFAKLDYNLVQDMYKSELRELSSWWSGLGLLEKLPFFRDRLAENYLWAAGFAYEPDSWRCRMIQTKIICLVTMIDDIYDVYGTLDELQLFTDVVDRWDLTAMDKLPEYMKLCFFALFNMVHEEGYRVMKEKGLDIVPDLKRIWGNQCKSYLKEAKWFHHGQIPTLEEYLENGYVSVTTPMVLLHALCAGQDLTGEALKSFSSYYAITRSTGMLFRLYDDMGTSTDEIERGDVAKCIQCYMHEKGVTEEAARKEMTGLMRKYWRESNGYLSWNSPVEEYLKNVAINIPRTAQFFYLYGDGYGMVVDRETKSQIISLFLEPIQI

[2] = target: T1, AvBPPS (AvTPS3); assay: GC-MS of borneol after alkaline phosphatase dephosphorylation; type: biochemical; conditions: from GPP; 25 mM HEPES pH 7.0, 5 mM MgCl2, 5 mM DTT, 30 °C, 1 h, then alkaline phosphatase 37 °C
[3] = substrate: CC(C)=CCC/C(C)=C/COP(=O)(O)OP(=O)(O)O; assay: GC-MS product assay, kinetic analysis; type: biochemical, Wurfbainia villosa; conditions: Mg2+ present

Molecule: CC(C)=CCC/C(C)=C/COP(=O)(O)OP(=O)(O)O [GPP]
- GC-MS product analysis [1]: AvTPS3 was found to catalyze GPP to produce three monoterpene compounds

Molecule: CC1(C)C2CCC1(C)C(OP(=O)(O)OP(=O)(O)O)C2 (stereo not drawn) [bornyl diphosphate]
- GC-MS of borneol after alkaline phosphatase dephosphorylation [2]: we identified AvTPS3 as bornyl diphosphate synthase (AvBPPS) according to its most abundant product

B1: AvPS (AvTPS1) (Wurfbainia villosa) (protein)
chain: AAEESQSLSSTTSRRSGNYQPSIWTHDRIQSLTLSHAAADEEDHAEEIKLLKYQTSKLMEEKKGRVEEQLQLIDHLQQLGVAYHFKDEIKDTLRGFHASFEDVSLQLRDNLHASALLFRLLRENGFSVSEDIFKKFKDEKAGQFEDRLQSQAEGLLSLYEASYLEKDGEELLHEAREFTTKHLKNLLEEEGSLKPGLIREQVAHALELPLNWRFQRLHTKWFIGAWQRDPAMDPALLGLAKLDFNALQNIYKRELKEASRWWTDLGLPQKLPFFRDRLTENYLWTVGWAFEPDSWAFRELQTKINCFITLIDDVYDVYGTLDELELFTDIMERWDVNSIDKLPEYMKICFLAVFNTVNDAGYEVIRDKGVDIIPYLKRAWAELCKMYMREARWYHAGYTPTLDEYLDGAWISISGALILSTAYCMGNDLTKDDLDKFSTYPAVMHPSCMLLRLHDDFGTSTDELARGDVQKAVQCCMHERKVPEAVAREHIMQVMEAKWRLLNGNRVATSSFEEYFLNVAINIPRSAQFFYGQGDGYGKSDGETKKQVISLLIEPVQF
notes: predicted 42-residue N-terminal transit peptide removed (full ORF 600 aa); E. coli Rosetta (DE3); Ni column
- Km [3]: 1.99 µM
